We go through 58 compounds from US20200077648A1, “PHENOXYPHENYLAMIDINES AND THE USE THEREOF AS FUNGICIDES” (priority 2016, published 2020).

As usually defined, the chromatographic logP is a lipophilicity value derived from retention on a column. A high value points to higher lipophilicity.

One series can be described thus: Log P measurement by HPLC on reversed phase columns (EEC directive 79/831 Annex V.A8; methods [a], [b], [c]). Conditions: method [a]: LC-UV, acidic range, 0.1% formic acid in water and acetonitrile as eluent. The series is classed as physicochemical. The procedure: If more than one Log P value is available within the same method, all the values are given and separated by “+”. […] Lambda-max-values were determined using UV-spectra from 200 nm to 400 nm and the peak values of the chromatographic signals.
In the case of `CCN(C)C=Nc1cc(Br)c(Oc2ccccc2I)cc1C` [Example 47], the LogP was 1.92^[a].

Turning to `CCN(C)C=Nc1cc(Cl)c(Oc2cccc(Cl)c2F)cc1C` [Example 50], the LogP was 1.83^[a].

Regarding `CCN(C)C=Nc1cc(Cl)c(Oc2ccccc2C#N)cc1C` [Example 18], the LogP was 1.21^[a].

`CCN(C)C=Nc1cc(I)c(Oc2ccccc2Cl)cc1C` [Example 58]: the LogP was 1.72^[a].

As for `CCc1cc(Oc2ccccc2)c(Br)cc1N=CN(C)C` [Example 35], the LogP is 1.37^[a];.

`CCN(C)C=Nc1cc(Br)c(Oc2ccccc2Cl)cc1C` [Example 45]: the LogP is 1.79^[a].

Take `CCN(C)C=Nc1cc(I)c(Oc2ccccc2C)cc1C` [Example 59]: the LogP is 1.78^[a].

On to `CCN(C)C=Nc1cc(C)c(Oc2ccccc2F)cc1C(F)(F)F` [Example 24], for which the LogP is 1.89^[a].

As for `CCN(C)C=Nc1cc(Br)c(Oc2ccccc2Br)cc1C` [Example 46], the LogP was 1.84^[a].

Regarding `CCN(C)C=Nc1cc(C)c(Oc2ccccc2C)cc1OC` [Example 15], the LogP is 1.60^[a];.

With `CCN(C)C=Nc1cc(C)c(Oc2ccccc2Cl)cc1C(F)(F)F` [Example 23], the LogP was 2.08^[a].

`Cc1cc(N=CN(C)C)c(Cl)cc1Oc1ccccc1F` [Example 60]: the LogP was 1.37^[a].

For `CCN(C)C=Nc1cc(I)c(Oc2ccccc2Br)cc1C` [Example 57], the LogP is 1.75^[a].

For the compound `CCN(C)C=Nc1cc(C)c(Oc2ccccc2I)cc1C(F)(F)F` [Example 26], the LogP was 2.28^[a].

As to `CCN(C)C=Nc1cc(C)c(Oc2ccccc2C)cc1C(F)(F)F` [Example 28], the LogP is 1.96^[a].

Consider `Cc1cc(N=CN(C)C(C)C)c(Br)cc1Oc1ccccc1F` [Example 63], for which the LogP is 1.63^[a].

For `CCN(C)C=Nc1cc(C)c(Oc2cccc(Cl)c2F)cc1C` [Example 53], the LogP is 1.89^[a].

As to `CCN(C)C=Nc1cc(C)c(Oc2ccccc2C#N)cc1C(F)(F)F` [Example 27], the LogP was 1.63^[a].

Consider `CCc1ccccc1Oc1cc(C)c(N=CN(C)CC)cc1C` [Example 10], for which the LogP is 2.06^[a].

On to `CCN(C)C=Nc1cc(C)c(Oc2ccccc2Br)cc1C(F)(F)F` [Example 25], for which the LogP is 2.17^[a].

As for `CCN(C)C=Nc1cc(C)c(Oc2cccc(Cl)c2)cc1C` [Example 1], the LogP is 1.86^[a].

With `Cc1cc(Oc2ccccc2)c(I)cc1N=CN(C)C` [Example 32], the LogP was 1.61^[a];.

Take `Cc1cc(N=CN(C)C)c(Br)cc1Oc1ccccc1F` [Example 61]: the LogP is 1.39^[a].

Turning to `CCN(C)C=Nc1cc(C)c(Oc2ccccc2C#N)cc1Cl` [Example 17], the LogP is 1.21^[a].

Consider `CCN(C)C=Nc1cc(C)c(Oc2ccccc2Br)cc1Cl` [Example 29], for which the LogP is 1.80^[a];.

On to `CCN(C)C=Nc1cc(C)c(Oc2ccccc2F)cc1OC` [Example 14], for which the LogP was 1.46^[a];.

On to `CCN(C)C=Nc1cc(C)c(Oc2ccccc2C)cc1C(F)F` [Example 6], for which the LogP was 1.72^[a].

For the compound `CCN(C)C=Nc1cc(C)c(Oc2ccccc2)cc1C(F)(F)F` [Example 22], the LogP is 1.89^[a].

In the case of `CCN(C)C=Nc1cc(C)c(Oc2ccccc2Br)cc1C(F)F` [Example 40], the LogP is 1.94^[a].

On to `Cc1cc(N=CN(C)C)c(Cl)cc1Oc1ccccc1Br` [Example 37], for which the LogP is 1.55^[a];.

`CCN(C)C=Nc1cc(C(F)F)c(Oc2ccccc2F)cc1C` [Example 54]: the LogP was 1.49^[a].

The same series, now with this note: method [a]: LC-UV, acidic range, 0.1% formic acid in water and acetonitrile as eluent (linear gradient 10% to 95% acetonitrile).
In the case of `CCN(C)C=Nc1cc(C)c(Oc2ccccc2C(=O)N(C)C)cc1Cl` [Example 91], the LogP was 0.97^[a].

Turning to `CCN(C)C=Nc1cc(C)c(Oc2ccccc2I)cc1Br` [Example 99], the LogP is 2.03^[a].

With `C#Cc1cc(Oc2ccccc2)c(C)cc1N=CN(C)CC` [Example 111], the LogP is 1.44^[a].

On to `Cc1cc(Oc2ccccc2C#N)c(C)cc1N=CN(C)C` [Example 70], for which the LogP is 1.25^[a].

Consider `CCN(C)C=Nc1cc(C)c(Oc2ccccc2Br)cc1C` [Example 83], for which the LogP was 1.63^[a].

Take `C=C(C)c1cc(N=CN(C)CC)c(C)cc1Oc1ccccc1C#N` [Example 109]: the LogP was 1.60^[a].

In the case of `CCN(C)C=Nc1cc(C)c(Oc2ccccc2[S+](C)[O-])cc1Br` (stereo not shown) [Example 101], the LogP was 1.02^[a].

For the compound `CCN(C)C=Nc1cc(C)c(Oc2ccccc2F)cc1C1CC1` [Example 110], the LogP is 1.83^[a].

Consider `CCN(C)C=Nc1cc(C)c(Oc2ccccc2C2CC2)cc1Cl` [Example 74], for which the LogP was 1.78^[a].

For `CCN(C)C=Nc1cc(C2CC2)c(Oc2ccccc2C#N)cc1C` [Example 119], the LogP is 1.38^[a].

As to `C#Cc1cc(Oc2ccccc2F)c(C)cc1N=CN(C)CC` [Example 112], the LogP is 1.44^[a].

As to `CCN(C)C=Nc1cc(C)c(Oc2ccccc2S(C)(=O)=O)cc1C` [Example 122], the LogP was 0.91^[a].

Consider `CCN(C)C=Nc1cc(C)c(Oc2ccccc2S(C)(=O)=O)cc1Cl` [Example 75], for which the LogP was 0.91^[a].

Turning to `CCN(C)C=Nc1cc(C)c(Oc2ccccc2)cc1C1CC1` [Example 113], the LogP is 1.58^[a].

With `CCN(C)C=Nc1cc(C)c(Oc2ccccc2F)cc1N(C)C` [Example 81], the LogP is 1.58^[a].

Turning to `CCN(C)C=Nc1cc(C)c(Oc2ccccc2)cc1C(=O)N(C)C` [Example 87], the LogP was 1.21^[a].

For the compound `CCN(C)C=Nc1cc(C)c(Oc2ccccc2C(C)C)cc1Br` [Example 98], the LogP was 2.26^[a].

Take `C=Cc1ccccc1Oc1cc(Cl)c(N=CN(C)CC)cc1C` [Example 89]: the LogP was 1.69^[a].

With `CCN(C)C=Nc1cc(C)c(Oc2cccc(F)c2C)cc1Br` [Example 95], the LogP was 1.75^[a].

As to `C=C(C)c1cc(Oc2ccccc2F)c(C)cc1N=CN(C)CC` [Example 97], the LogP is 1.66^[a].

In the case of `CCN(C)C=Nc1cc(C)c(Oc2ccccc2C#N)cc1Br` [Example 92], the LogP was 1.27^[a].

As to `CCc1cc(N=CN(C)CC)c(C)cc1Oc1ccccc1C#N` [Example 108], the LogP is 1.59^[a].

Regarding `CCN(C)C=Nc1cc(C)c(Oc2ccccc2S(C)(=O)=O)cc1Br` [Example 123], the LogP was 0.94^[a].

For the compound `CCN(C)C=Nc1cc(C)c(Oc2cccc(F)c2C)cc1C` [Example 86], the LogP was 1.72^[a].

As for `CCN(C)C=Nc1cc(C)c(Oc2cc(F)ccc2C#N)cc1C` [Example 84], the LogP was 1.29^[a].

For the compound `CCN(C)C=Nc1cc(C(C)C)c(Oc2ccccc2F)cc1C` [Example 121], the LogP was 1.75^[a].

The same series, now with this note: method [b]: LC-UV, neutral range, 0.001 molar ammonium acetate solution in water and acetonitrile as eluent.
With `CCc1cc(Oc2ccccc2)c(Br)cc1N=CN(C)C` [Example 35], the LogP is 4.29^[b].

Turning to `CCN(C)C=Nc1cc(C)c(Oc2ccccc2C)cc1OC` [Example 15], the LogP is 5.53^[b].

With `Cc1cc(Oc2ccccc2)c(I)cc1N=CN(C)C` [Example 32], the LogP was 4.51^[b].

As for `CCN(C)C=Nc1cc(C)c(Oc2ccccc2Br)cc1Cl` [Example 29], the LogP is 4.93^[b].

Turning to `CCN(C)C=Nc1cc(C)c(Oc2ccccc2F)cc1OC` [Example 14], the LogP is 4.33^[b].

As for `Cc1cc(N=CN(C)C)c(Cl)cc1Oc1ccccc1Br` [Example 37], the LogP is 4.47^[b].

The series is the same for the next values; noted with them: reversed phase HPLC column; method [a]: LC-UV, acidic range, 0.1% formic acid in water and acetonitrile as eluent.
As for `CCN(C)C=Nc1cc(C)c(Oc2ccccc2F)cc1C1CC1` [Example 34, N′-[2-cyclopropyl-4-(2-fluorophenoxy)-5-methyl-phenyl]-N-ethyl-N-methyl-formamidine], the chromatographic logP turned out to be 1.69.
